# pIC50: −log10 of the molar value.
# Tested on: ZR-75-1
# Assay: ZR-75-1 proliferation assay (CellTiter-Glo, day 14)
# Type: cell-based
# Details: Homo sapiens, 336 h, CTG assay day 14; for pIC50: ZR-75-1 proliferation; for Emax: inhibition of ZR-75-1 proliferation, read-out: Maximum inhibition rate/Imax %
# Excerpt: Test Example 4: ZR-75-1 Proliferation Assay
# I. Reagents and Instruments
# • 1. ZR-75-1 (ATCC CRL1500) • 2. 1640 medium (Gibco, 22400-089) • 3. 0.25% trypsin-EDTA (1×) (Gibco, 25200-072) • 4. Penicillin-streptomycin (Gibco, 15140-122) • 5. DPBS (1×) (Gibco, 14190-144) • 6. FBS (Gibco, 10091148) • 7. Assay plate, 96-well, black with clear bottom (Corning, 3603) • 8. 96-well non-treated round-bottom plate (JET BIOFIL, TCP-002-096) • 9. CellTiter-Glo buffer (Promega, G756B) • 10. CellTiter-Glo substrate (Promega, G755B) • 11. Automatic cell counter (Countstar, IC1000) • 12. Thermostatic incubator (Thermo, 1160) • 13. PHERAstar FS (BMG labtech, PHERAstar FS)
# a. The state of cells was observed under a microscope to make sure that the cell confluence was about 90%.
# b. The cell supernatant was discarded. The cells were rinsed with DPBS once, and the DPBS was removed. The cells were digested with a proper amount of trypsin and left to stand at 37° C. for 5 min.
# c. The digestion was stopped with an equal volume of 1640 medium containing 10% FBS, and the cell suspension was collected and centrifuged at 300 g for 3 min. The cells were suspended in a proper amount of fresh medium.
# d. The resulting cell suspension was collected and cell counting was performed.
# e. The cell suspension was diluted to 5×10^4/mL, 50 μL/well with 1640 medium containing 10% FBS. Each well contained 2500 ZR-75-1 cells.
# f. The cell culture plates were incubated overnight in a 37° C., 5% carbon dioxide incubator.
# 2. Compound Addition (Day 1)
# a. Each compound was serially diluted in DMSO to 9 concentration points (initial concentration of 100 μM, 3-fold dilution; the highest concentration of each compound may be adjusted depending on its IC50). For example, in a 96-well non-treated round-bottom plate, 3 μL of compound was serially diluted in 6 μL of DMSO.
# b. Each concentration point of each compound was diluted 500-fold in the corresponding volume of 1640 medium.
# c. 50 μL of diluted compound solution was added to the cell supernatant (50 μL/well) in each cell plate.
# d. After the addition, the cell plates were incubated in a 37° C., 5% carbon dioxide incubator.
# 3. The Cells were Re-Digested and Plated, and the Compounds were Added (Day 7).
# a. Six days after the addition, the compound-containing medium was discarded. Then the cells were rinsed with DPBS (150 μL/well), and the DPBS was immediately pipetted off.
# b. The cells were digested with 50 μL of trypsin and left to stand at 37° C. for 3 min, and then the digestion was stopped with 1640 medium containing 10% FBS (150 μL/well).
# c. The cells were well mixed using a pipette and re-plated at a ratio of 1:8; that is, 25 μL of cell suspension was pipetted into a new 96-well plate (25 μL of 1640 medium containing 10% FBS had been added to the new plate in advance).
# d. Compound solution preparation and addition (50 μL/well) were performed according to steps a to c in 2.
# e. After the addition, the cell plates were incubated in a 37° C., 5% carbon dioxide incubator.
# a. CellTiter-Glo buffer and lyophilized CellTiter-Glo substrate were equilibrated to room temperature before use and were well mixed to prepare a 100-mL CellTiter-Glo reagent (or a prepared CellTiter-Glo reagent was removed from a −20° C. freezer and equilibrated to room temperature).
# b. The plates to be tested were removed from the incubator and equilibrated to room temperature, and the CellTiter-Glo reagent was added at 50 μL/well.
# c. The plates were shaken for 2 min so that the cells were completely lysed.
# d. After the plates were left to stand at room temperature for 28 min and signals were stable, the plates were tested on PHERAstar FS.
Compound,pIC50,Emax [%]
"COc1cccc(OC(F)(F)F)c1S(=O)(=O)Nc1noc2cc(Cn3cccn3)c3c(c12)OCCC3 [Compound 10, N-(5-((1H-pyrazol-1-yl)methyl)-3,4-dihydro-2H-chromeno[8,7-d]isoxazol-9-yl)-2-methoxy-6-(trifluoromethoxy)benzenesulfonamide]",8.53,94.1
"COc1cccc(OC(F)(F)F)c1S(=O)(=O)Nc1noc2cc(Cn3cccn3)c3c(c12)OCC3 [Compound 23, N-(4-((1H-pyrazol-1-yl)methyl)-2,3-dihydrobenzofuro[7,6-d]isoxazol-8-yl)-2-methoxy-6-(trifluoromethoxy)benzenesulfonamide]",7.96,90.8
"COc1cccc(OC)c1S(=O)(=O)Nc1noc2cc(Cn3cccn3)c3c(c12)OCC3 [Compound 1, N-(4-((1H-pyrazol-1-yl)methyl)-2,3-dihydrobenzofuro[7,6-d]isoxazol-8-yl)-2,6-dimethoxybenzenesulfonamide]",8.85,96
"COc1ccc(F)cc1S(=O)(=O)Nc1noc2cc(Cn3cccn3)c3c(c12)OCCC3 [Compound 9, N-(5-((1H-pyrazol-1-yl)methyl)-3,4-dihydro-2H-chromeno[8,7-d]isoxazol-9-yl)-5-fluoro-2-methoxybenzenesulfonamide]",8.80,96.2
"COc1ccccc1S(=O)(=O)Nc1noc2cc(Cn3cccn3)c3c(c12)OCC3 [Compound 20, N-(4-((1H-pyrazol-1-yl)methyl)-2,3-dihydrobenzofuro[7,6-d]isoxazol-8-yl)-2-methoxybenzenesulfonamide]",8.07,94.9
"CCOc1cc(C)ccc1S(=O)(=O)Nc1noc2cc(Cn3cccn3)c3c(c12)OCCC3 [Compound 7, N-(5-((1H-pyrazol-1-yl)methyl)-3,4-dihydro-2H-chromeno[8,7-d]isoxazol-9-yl)-2-ethoxy-4-methylbenzenesulfonamide]",8.80,95.6
"COc1ccccc1S(=O)(=O)Nc1noc2cc(Cn3cccn3)c3c(c12)OCCC3 [Compound 3, N-(5-((1H-pyrazol-1-yl)methyl)-3,4-dihydro-2H-chromeno[8,7-d]isoxazol-9-yl)-2-methoxybenzenesulfonamide]",8.72,95
"Cc1ccc(S(=O)(=O)Nc2noc3cc(Cn4cccn4)c4c(c23)OCCC4)c(OCC(F)(F)F)c1 [Compound 8, N-(5-((1H-pyrazol-1-yl)methyl)-3,4-dihydro-2H-chromeno[8,7-d]isoxazol-9-yl)-4-methyl-2-(2,2,2-trifluoroethoxy)benzenesulfonamide]",8.59,96.3
"COc1cccc(OC)c1S(=O)(=O)Nc1noc2cc(Cn3cccn3)c3c(c12)OC(F)(F)O3 [Compound 5, N-(4-((1H-pyrazol-1-yl)methyl)-2,2-difluoro-[1,3]dioxolo[4′,5′:5,6]benzo[1,2-d]isoxazol-8-yl)-2,6-dimethoxybenzenesulfonamide]",9.05,98
"COc1cccc(OC)c1S(=O)(=O)Nc1noc2cc(Cn3cccn3)c3c(c12)OCCC3 [Compound 2, N-(5-((1H-pyrazol-1-yl)methyl)-3,4-dihydro-2H-chromeno[8,7-d]isoxazol-9-yl)-2,6-dimethoxybenzenesulfonamide]",9.40,96

# From patent US20250145637A1, “SULFONAMIDE DERIVATIVE, PREPARATION METHOD THEREFOR AND MEDICAL USE THEREOF” (Jiangsu Hengrui Pharmaceuticals Co. Ltd., priority 2021, published 2025)
